“Also recorded” adds a separate entry of the source.
Legend:
Assay type in all cases: cell-based
Aspergillus niger = assay: Outgrowth of Aspergillus niger spores in malt extract broth/agar, microtitre plate, OD 620 nm; details: no enzyme
Description: An aqueous solution (demineralised water) was prepared containing 0.2 wt. % of the antifungal substance NovoZyme™ 234 and 0.002 wt. % of nisin. 75 μl of the solution were warmed to 20° C. and added to the well of a microtitre plate. Then 75 μl of a solution containing 4 wt. % of malt extract broth (ex Oxoid), 0.75 wt. % of agar (ex Difco) and 1000 spores of the fungus Aspergillus niger was heated to 25° C. and added to the test solution in the well (pH 5.1).
The procedure was repeated with solutions containing 0.004, 0.008, 0.016, 0.032 and 0.064 wt. % of nisin. The contents of the wells were thoroughly mixed and 75 μl of paraffin oil was loaded on top of the mixture. Finally, the plates were sealed with an oxygen permeable foil (Merlin).
During 360 hours the OD 620 nm was measured at regular intervals using a Multiscan devise MCC 340. Fungal outgrowth was defined when an OD (optical density) increase of at least 0.1 occurred.
[…] 75 μl of the solution were warmed to 20° C. and added to the well of a microtitre plate. Then 75 μl of a solution containing 4 wt. % malt extract broth (ex Oxoid), 0.75 wt. % agar (ex Difco) and 1000 spores of the fungus Aspergillus niger was heated to 25° C. and added to the test solution in the well (pH 5.1). […] During 360 hours the OD 620 nm was measured at regular intervals using a Multiscan devise MCC 340. […]

Paecilomyces variotii [1] = assay: Outgrowth of Paecilomyces variotii spores, microtitre plate (Example 2 repeated); details: histatin without enzyme
Description: An aqueous solution (demineralised water) was prepared containing 0.2 wt. % of the antifungal substance NovoZyme™ 234 and 0.002 wt. % of histatin. 75 μl of the solution were warmed to 20° C. and added to the well of a microtitre plate. Then 75 μl of a solution containing 4 wt. % malt extract broth (ex Oxoid), 0.75 wt. % agar (ex Difco) and 1000 spores of the fungus Aspergillus niger was heated to 25° C. and added to the test solution in the well (pH 5.1). The procedure was repeated with solutions containing 0.004, 0.008, 0.016, 0.032 and 0.064 wt. % of histatin. The contents of the wells were thoroughly mixed and 75 μl of paraffin oil was loaded on top of the mixture. Finally, the plates were sealed with an oxygen permeable foil (Merlin). During 360 hours the OD 620 nm was measured at regular intervals using a Multiscan devise MCC 340. Fungal outgrowth was defined when an OD increase of at least 0.1 occurred.
Example 2 is repeated with the fungus Paecilomyces variotii.

Penicillium roqueforti = assay: Outgrowth of Penicillium roqueforti inoculated on processed cheese; details: nisin 0.05 wt. % or NovoZyme 234 2 wt. % singly
Source text: The surface of processed cheese was inoculated in the centre with Penicillium roqueforti. Admixture of nisin of the lytic enzymes was done in a laminar air flow cabinet. The samples were observed during 16 days (see FIG. 7).
Fungal growth is expressed as the diameter of the colonies. When NovoZyme™ 234 (2 wt. %) was present fungal outgrowth was considerably delayed and became visible only after 12 days.

Paecilomyces variotii [2] = assay: Extent of outgrowth of Paecilomyces variotii in malt extract broth in serum bottles; details: 1 μM carvacrol, absence of enzyme; observed during ten days
Description: Solutions (30 ml) were prepared containing […] dissolved in malt extract broth. Novozyme™234 was present in concentrations of 1, 0.1 and 0 mg/ml. For comparison a solution was prepared containing 1 mg/ml of Novozyme™, but without carvacrol and one in which both enzyme and carvacrol were absent. 50 ml serum bottles filled with the solutions were inoculated with 1000 spores of Paecilomyces variotii. The height of the bars of FIG. 5 indicates the extent of outgrowth of the fungi observed during ten days. The highest bars ("100") indicate full outgrowth of the fungi, which occurs in solutions without carvacrol and with 1 mg/ml or less enzyme. Observed growth inhibition is expressed by the "50" bars. The presence of 1 μM carvacrol causes inhibition of growth, even in the absence of enzyme. When 1 mg/ml of enzyme is present together with 1 μM of carvacrol even germination of the fungal spores ("25" bars) does no longer occurs.

histatin
retarding fungal growth (time needed for outgrowth) (Aspergillus niger; histatin 0 to 0.032 wt. %, particularly at 0.008 wt. % and higher): slightly active in retarding fungal growth | concentration at which fungal growth inhibition is shown (Paecilomyces variotii [1]): ≥ 0.004 wt. %

nisin
effect on postponing the onset of fungal growth (time needed for outgrowth) (Aspergillus niger; nisin 0 to 0.032 wt. %, pH 5.1, followed 360 hours): no fungal growth inhibition has been observed; also recorded: no substantial effect | time after which fungal outgrowth showed (Penicillium roqueforti): 4 days

Cc1ccc(C(C)C)cc1O [carvacrol]
extent of outgrowth (height of bar) (Paecilomyces variotii [2]): 50

From US5888504A, “Natural composition for combatting fungi” (Van den Bergh Foods Co., Division of Conopco, Inc., priority 1995, dated 1999)
